Source: patent US10906915B2, “Substituted pyrazoloazepin-4-ones and their use as phosphodiesterase inhibitors” (LEO Pharma A/S, priority 2016, dated 2021)

The compounds below were run against human PDE4D catalytic domain (UniProt no. Q08499) (Homo sapiens (Human), UniProt Q08499) (assay: PDE4 assay (TR-FRET, FAM-cAMP cleavage)). Conditions: read-out: PDE4 IC50 range.
Assay type: biochemical
In short: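 Read-out is time-resolved FRET from Tb donor to FAM-AMP captured on trivalent-metal nanoparticles added to stop the reaction. Substrate was a mix of plain and FAM-labelled cAMP, cleaved by human PDE4D catalytic domain ([…]) with titrated compound; IC50 ranges (nM) versus controls.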

Sequence of human PDE4D catalytic domain (Q08499 380-740 limits assumed): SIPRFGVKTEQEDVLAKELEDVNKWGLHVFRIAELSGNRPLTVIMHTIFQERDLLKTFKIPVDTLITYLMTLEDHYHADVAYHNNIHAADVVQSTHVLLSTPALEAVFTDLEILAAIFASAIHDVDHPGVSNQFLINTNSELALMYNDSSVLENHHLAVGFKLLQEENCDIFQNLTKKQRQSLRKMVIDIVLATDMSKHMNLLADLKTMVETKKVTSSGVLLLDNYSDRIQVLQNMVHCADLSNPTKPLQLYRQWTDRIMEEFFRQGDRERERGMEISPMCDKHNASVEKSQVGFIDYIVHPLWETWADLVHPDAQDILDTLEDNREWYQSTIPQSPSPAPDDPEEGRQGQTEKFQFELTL

Row | Structure (SMILES) | IC50
1 | CCc1nn(CC(C)(C)COC(=O)c2cccc(OC)c2)c2c1C(=O)NCC1(CCOCC1)C2 [Example 289, [3-(3-ethyl-4-oxo-spiro[6,8-dihydro-5H-pyrazolo[4,3-c]azepine-7,4′-tetrahydropyran]-1-yl)-2,2-dimethyl-propyl] 3-methoxybenzoate] | < 100 nM
2 | CCc1nn(CC(C)(C)COC(=O)c2ccc(Cl)cc2)c2c1C(=O)NCC1(CCOCC1)C2 [Example 290, [3-(3-ethyl-4-oxo-spiro[6,8-dihydro-5H-pyrazolo[4,3-c]azepine-7,4′-tetrahydropyran]-1-yl)-2,2-dimethyl-propyl] 4-chlorobenzoate] | < 100 nM
3 | CCc1nn(CC(C)(C)COC(=O)c2cccc(Cl)c2)c2c1C(=O)NCC1(CCOCC1)C2 [Example 291, [3-(3-ethyl-4-oxo-spiro[6,8-dihydro-5H-pyrazolo[4,3-c]azepine-7,4′-tetrahydropyran]-1-yl)-2,2-dimethyl-propyl] 3-chlorobenzoate] | < 100 nM
4 | CCc1nn(CC(C)(C)COC(=O)c2ccccc2Cl)c2c1C(=O)NCC1(CCOCC1)C2 [Example 292, [3-(3-ethyl-4-oxo-spiro[6,8-dihydro-5H-pyrazolo[4,3-c]azepine-7,4′-tetrahydropyran]-1-yl)-2,2-dimethyl-propyl] 2-chlorobenzoate] | < 100 nM
5 | CCc1nn(CC(C)(C)COC(=O)c2cc(F)cc(F)c2)c2c1C(=O)NCC1(CCOCC1)C2 [Example 293, [3-(3-ethyl-4-oxo-spiro[6,8-dihydro-5H-pyrazolo[4,3-c]azepine-7,4′-tetrahydropyran]-1-yl)-2,2-dimethyl-propyl] 3,5-difluorobenzoate] | < 100 nM
6 | CCc1nn(CC(C)(C)COC(=O)c2ccc(F)c(F)c2)c2c1C(=O)NCC1(CCOCC1)C2 [Example 294, [3-(3-ethyl-4-oxo-spiro[6,8-dihydro-5H-pyrazolo[4,3-c]azepine-7,4′-tetrahydropyran]-1-yl)-2,2-dimethyl-propyl] 3,4-difluorobenzoate] | < 100 nM
7 | CCc1nn(CC(C)(C)COC(=O)c2ccc(C(C)=O)cc2)c2c1C(=O)NCC1(CCOCC1)C2 [Example 295, [3-(3-ethyl-4-oxo-spiro[6,8-dihydro-5H-pyrazolo[4,3-c]azepine-7,4′-tetrahydropyran]-1-yl)-2,2-dimethyl-propyl] 4-acetylbenzoate] | < 100 nM
8 | CCc1nn(CC(C)(C)COC(=O)c2cccc(C(C)=O)c2)c2c1C(=O)NCC1(CCOCC1)C2 [Example 296, [3-(3-ethyl-4-oxo-spiro[6,8-dihydro-5H-pyrazolo[4,3-c]azepine-7,4′-tetrahydropyran]-1-yl)-2,2-dimethyl-propyl] 3-acetylbenzoate] | < 100 nM
9 | CCc1nn(CC(C)(C)COC(=O)c2ccc(C#N)c(F)c2)c2c1C(=O)NCC1(CCOCC1)C2 [Example 297, [3-(3-ethyl-4-oxo-spiro[6,8-dihydro-5H-pyrazolo[4,3-c]azepine-7,4′-tetrahydropyran]-1-yl)-2,2-dimethyl-propyl] 4-cyano-3-fluoro-benzoate] | < 100 nM
10 | CCc1nn(CC(C)(C)COC(=O)c2ccc(C#N)cc2F)c2c1C(=O)NCC1(CCOCC1)C2 [Example 298, [3-(3-ethyl-4-oxo-spiro[6,8-dihydro-5H-pyrazolo[4,3-c]azepine-7,4′-tetrahydropyran]-1-yl)-2,2-dimethyl-propyl] 4-cyano-2-fluoro-benzoate] | < 100 nM
11 | CCOc1cccc(C(=O)OCC(C)(C)Cn2nc(CC)c3c2CC2(CCOCC2)CNC3=O)c1 [Example 299, [3-(3-ethyl-4-oxo-spiro[6,8-dihydro-5H-pyrazolo[4,3-c]azepine-7,4′-tetrahydropyran]-1-yl)-2,2-dimethyl-propyl] 3-ethoxybenzoate] | < 100 nM
12 | CCc1nn(CC(C)(C)COC(=O)c2c(F)cccc2Cl)c2c1C(=O)NCC1(CCOCC1)C2 [Example 300, [3-(3-ethyl-4-oxo-spiro[6,8-dihydro-5H-pyrazolo[4,3-c]azepine-7,4′-tetrahydropyran]-1-yl)-2,2-dimethyl-propyl] 2-chloro-6-fluoro-benzoate] | < 100 nM
13 | CCc1nn(CC(C)(C)COC(=O)c2ccc(F)cc2Cl)c2c1C(=O)NCC1(CCOCC1)C2 [Example 301, [3-(3-ethyl-4-oxo-spiro[6,8-dihydro-5H-pyrazolo[4,3-c]azepine-7,4′-tetrahydropyran]-1-yl)-2,2-dimethyl-propyl] 2-chloro-4-fluoro-benzoate] | < 100 nM
14 | CCc1nn(CC(C)(C)COC(=O)c2cccc(C(F)(F)F)c2)c2c1C(=O)NCC1(CCOCC1)C2 [Example 302, [3-(3-ethyl-4-oxo-spiro[6,8-dihydro-5H-pyrazolo[4,3-c]azepine-7,4′-tetrahydropyran]-1-yl)-2,2-dimethyl-propyl] 3-(trifluoromethyl)benzoate] | < 100 nM
15 | CCc1nn(CC(C)(C)COC(=O)c2ccccc2C(F)(F)F)c2c1C(=O)NCC1(CCOCC1)C2 [Example 303, [3-(3-ethyl-4-oxo-spiro[6,8-dihydro-5H-pyrazolo[4,3-c]azepine-7,4′-tetrahydropyran]-1-yl)-2,2-dimethyl-propyl] 2-(trifluoromethyl)benzoate] | < 100 nM
16 | CCc1nn(CC(C)(C)COC(=O)c2ccc(C(F)(F)F)cc2)c2c1C(=O)NCC1(CCOCC1)C2 [Example 304, [3-(3-ethyl-4-oxo-spiro[6,8-dihydro-5H-pyrazolo[4,3-c]azepine-7,4′-tetrahydropyran]-1-yl)-2,2-dimethyl-propyl] 4-(trifluoromethyl)benzoate] | < 100 nM
17 | CCc1nn(CC(C)(C)COC(=O)c2cccc(S(C)(=O)=O)c2)c2c1C(=O)NCC1(CCOCC1)C2 [Example 305, [3-(3-ethyl-4-oxo-spiro[6,8-dihydro-5H-pyrazolo[4,3-c]azepine-7,4′-tetrahydropyran]-1-yl)-2,2-dimethyl-propyl] 3-methylsulfonylbenzoate] | < 100 nM
18 | CCc1nn(CC(C)(C)COC(=O)c2ccc(S(C)(=O)=O)cc2)c2c1C(=O)NCC1(CCOCC1)C2 [Example 306, [3-(3-ethyl-4-oxo-spiro[6,8-dihydro-5H-pyrazolo[4,3-c]azepine-7,4′-tetrahydropyran]-1-yl)-2,2-dimethyl-propyl] 4-methylsulfonylbenzoate] | < 100 nM
19 | CCc1nn(CC(C)(C)COC(=O)c2ccccc2S(C)(=O)=O)c2c1C(=O)NCC1(CCOCC1)C2 [Example 307, [3-(3-ethyl-4-oxo-spiro[6,8-dihydro-5H-pyrazolo[4,3-c]azepine-7,4′-tetrahydropyran]-1-yl)-2,2-dimethyl-propyl] 2-methylsulfonylbenzoate] | < 100 nM
20 | CCc1nn(CC(C)(C)COC(=O)c2cccc(S(N)(=O)=O)c2)c2c1C(=O)NCC1(CCOCC1)C2 [Example 308, [3-(3-ethyl-4-oxo-spiro[6,8-dihydro-5H-pyrazolo[4,3-c]azepine-7,4′-tetrahydropyran]-1-yl)-2,2-dimethyl-propyl] 3-sulfamoylbenzoate] | < 100 nM
21 | CCc1nn(CC(C)(C)COC(=O)c2ccc(S(N)(=O)=O)cc2)c2c1C(=O)NCC1(CCOCC1)C2 [Example 309, [3-(3-ethyl-4-oxo-spiro[6,8-dihydro-5H-pyrazolo[4,3-c]azepine-7,4′-tetrahydropyran]-1-yl)-2,2-dimethyl-propyl] 4-sulfamoylbenzoate] | < 100 nM
22 | CCc1nn(CC(C)(C)COC(=O)c2cc(F)cc(C(F)(F)F)c2)c2c1C(=O)NCC1(CCOCC1)C2 [Example 310, [3-(3-ethyl-4-oxo-spiro[6,8-dihydro-5H-pyrazolo[4,3-c]azepine-7,4′-tetrahydropyran]-1-yl)-2,2-dimethyl-propyl] 3-fluoro-5-(trifluoromethyl)benzoate] | < 100 nM
23 | CCc1nn(CC(C)(C)COC(=O)c2cccc(S(=O)(=O)CC)c2)c2c1C(=O)NCC1(CCOCC1)C2 [Example 311, [3-(3-ethyl-4-oxo-spiro[6,8-dihydro-5H-pyrazolo[4,3-c]azepine-7,4′-tetrahydropyran]-1-yl)-2,2-dimethyl-propyl] 3-ethylsulfonylbenzoate] | < 100 nM
24 | CCc1nn(CC(C)(C)COC(=O)c2ccc(S(=O)(=O)CC)cc2)c2c1C(=O)NCC1(CCOCC1)C2 [Example 312, [3-(3-ethyl-4-oxo-spiro[6,8-dihydro-5H-pyrazolo[4,3-c]azepine-7,4′-tetrahydropyran]-1-yl)-2,2-dimethyl-propyl] 4-ethylsulfonylbenzoate] | < 100 nM
25 | CCc1nn(CC(C)(C)COC(=O)c2cccc(S(=O)(=O)NC)c2)c2c1C(=O)NCC1(CCOCC1)C2 [Example 313, [3-(3-ethyl-4-oxo-spiro[6,8-dihydro-5H-pyrazolo[4,3-c]azepine-7,4′-tetrahydropyran]-1-yl)-2,2-dimethyl-propyl] 3-(methylsulfamoyl)benzoate] | < 100 nM
26 | CCc1nn(CC(C)(C)COC(=O)c2ccc(Cl)c(C(F)(F)F)c2)c2c1C(=O)NCC1(CCOCC1)C2 [Example 314, [3-(3-ethyl-4-oxo-spiro[6,8-dihydro-5H-pyrazolo[4,3-c]azepine-7,4′-tetrahydropyran]-1-yl)-2,2-dimethyl-propyl] 4-chloro-3-(trifluoromethyl)benzoate] | < 100 nM
27 | CCc1nn(CC(C)(C)COC(=O)c2cc(C(F)(F)F)ccc2Cl)c2c1C(=O)NCC1(CCOCC1)C2 [Example 315, [3-(3-ethyl-4-oxo-spiro[6,8-dihydro-5H-pyrazolo[4,3-c]azepine-7,4′-tetrahydropyran]-1-yl)-2,2-dimethyl-propyl] 2-chloro-5-(trifluoromethyl)benzoate] | < 100 nM
28 | CCc1nn(CC(C)(C)COC(=O)c2cccc(S(=O)(=O)C(C)C)c2)c2c1C(=O)NCC1(CCOCC1)C2 [Example 316, [3-(3-ethyl-4-oxo-spiro[6,8-dihydro-5H-pyrazolo[4,3-c]azepine-7,4′-tetrahydropyran]-1-yl)-2,2-dimethyl-propyl] 3-isopropylsulfonylbenzoate] | < 100 nM
29 | CCc1nn(CC(C)(C)COC(=O)c2ccc(S(=O)(=O)C(C)C)cc2)c2c1C(=O)NCC1(CCOCC1)C2 [Example 317, [3-(3-ethyl-4-oxo-spiro[6,8-dihydro-5H-pyrazolo[4,3-c]azepine-7,4′-tetrahydropyran]-1-yl)-2,2-dimethyl-propyl] 4-isopropylsulfonylbenzoate] | < 100 nM
